Measurements from patent US20050065218A1, “Utilization of alverine, alone or in combination with tricyclic antidepressant or a specific serotonin reuptake inhibitor for the treatment of depression” (priority 2003, published 2005).
Several values for one entry are separate records, joined by “and”; a condition that tells them apart may be missing. Identical values can stand only once. Entries after “also recorded” stand apart in the source; their conditions may differ. Counter-ions that a name gives are not always drawn.

Key:
Format in all cases: in vivo
Swiss mice CD1 [1] = experiment: forced swim test, Alverine and fluoxetine administered intraperitoneally to mice (Example 3, second test); settings: for immobility time, individual animals / immobility time, Mean: 30 minutes prior to the test; for immobility time, Mean: n = 10
Description: These are Swiss mice CD1 (CD-1® (ICR) IGS (Charles River France) weighing between 25 and 35 g. […] They are placed 15 to 20 per cage, over an acclimatising period of at least 5 days prior to the tests. They are identified by marking on the fur. […] The mice were divided into two test comprising six groups of 10 mice each. For the second test: The first group is the control group: it is treated only by excipient. […] The doses are expressed in terms of free active substances. The test substances are prepared extemporaneously in a saline solution. The treatments are co-administered 30 minutes prior to the test in a coded and random order intraperitoneally with a volume of 10 ml/kg (5 ml/kg for each administration). […] The total duration of immobility is measured over the last four minutes of the test, six minutes in total. A mouse is deemed immobile when it ceases struggling and floats in the water without movements superfluous to those allowing it to keep its head above water. A drop in immobility time is the reflection of an antidepressant effect. The forced swim test is a pre-clinical behavioural model, which has good predictive validity and is widely employed for determining the efficacy of antidepressant medications (Borsini and Meli, 1988). The results are expressed in total duration of immobility in seconds and as a percentage of variation of the total duration of immobility calculated from the average value of the control group. The statistical significance between two treated groups is determined by using a Student test (P<0.05) The data are analysed using <<SigmaStat>> software.

Swiss mice CD1 [2] = experiment: observation of secondary effects in mice treated orally (Example 2); settings: treated orally, 10, 30, 100 mg/kg
Swiss mice CD1 [3] = experiment: forced swim test, Alverine administered orally to mice (Example 2); design: key to Dunnett test vs control group: * indicates a significant difference for p < 0.05 (Dunnett test); ns indicates an insignificant result; settings: for immobility time, individual animals / immobility time, Mean: 60 minutes prior to the test; for immobility time, Mean: N = 10
Swiss mice CD1 [4] = experiment: forced swim test, Alverine administered intraperitoneally to mice (Example 1); design: key to Dunnett test vs control group: * indicates a significant difference for p < 0.05 (Dunnett test); ns indicates an insignificant result; settings: for immobility time, individual animals / immobility time, Mean: 30 minutes prior to the test; for immobility time, Mean: N = 10
Description: To establish the advantages according to the present invention a study was carried out to 50 mice. They were divided into 5 groups of 10 mice each. These are Swiss mice CD1 (CD-1® (ICR) IGS (Charles River France) weighing between 25 and 35 g.
They were placed in a room at a temperature of between 19.5 and 24.5° C. and a relative humidity of 45 to 65% with a light/dark cycle of 12 h, ad libitum access to filtered water and pellets of laboratory-standard food.
They are placed 15 to 20 per cage, over an acclimatising period of at least 5 days prior to the tests. They are identified by marking on the fur.
The substance to be tested is Alverine citrate (Sigma, in the form of dry powder, with a salt/base ratio of 1.68) comparatively to imipramine chlorhydrate (Sigma, in the form of dry powder, with a salt/base ratio of 1.13).
The first group is the control group: it is treated only by excipient.
The second group is treated with Alverine at a dose of 3 mg/kg
The third group is treated with Alverine at a dose of 10 mg/kg
The fourth group is treated with Alverine at a dose of 30 mg/kg
The fifth group is treated with imipramine (tricyclic antidepressant) at a dose of 10 mg/kg
The doses are expressed in terms of free active substances. The substances are prepared extemporaneously in the excipient. The treatments are administered 30 minutes prior to the test in a coded and random order intraperitoneally with a volume of 10 ml/kg.
Thirty minutes following administration the five groups of mice are subjected to the forced swim test, in a vertical Plexiglas cylinder (height 24 cm, diameter 9 cm) containing water (height 6 cm, temperature 18-22° C.). The total duration of immobility is measured over the last four minutes of the test, six minutes in total. A mouse is deemed immobile when it ceases struggling and floats in the water without movements superfluous to those allowing it to keep its head above water. A drop in immobility time is the reflection of an antidepressant effect.
The forced swim test is a pre-clinical behavioural model, which has good predictive validity and is widely employed for determining the efficacy of antidepressant medications (Borsini and Meli, 1988).
The results are expressed in total duration of immobility in seconds and as a percentage of variation of the total duration of immobility calculated from the average value of the control group.
The statistical significance between the treated groups and the control group is determined by a Dunnett test using the residual variation according to analysis of the variance (P<0.05). The data are analysed using <<SigmaStat>> software.

[5] = Alverine 3 mg/kg intraperitoneally
[6] = Alverine 10 mg/kg intraperitoneally
[7] = Alverine citrate 10 mg/kg orally
[8] = Alverine citrate 30 mg/kg orally
[9] = Alverine citrate 100 mg/kg orally
[10] = Alverine citrate 3 mg/kg intraperitoneally
[11] = Alverine citrate 10 mg/kg intraperitoneally
[12] = Alverine citrate 30 mg/kg intraperitoneally

CCN(CCCc1ccccc1)CCCc1ccccc1 [Alverine citrate, N-ethyl-3,3′-diphenyldipropylamine]
% of variation of immobility time vs control group (Swiss mice CD1 [1]; [5]): −37%
Dunnett test vs control group (Swiss mice CD1 [1]; [5]): * (* indicates a significant difference for p < 0.05 (Dunnett test))
immobility time, individual animals (Swiss mice CD1 [1]; [5]): 119 sec and 138 sec and 117 sec (2×) and 110 sec and 73 sec and 47 sec and 124 sec and 72 sec and 32 sec
immobility time, Mean (Swiss mice CD1 [1]; [5]): 94.9 s
% of variation of immobility time vs control group (Swiss mice CD1 [1]; [6]): −49%
Dunnett test vs control group (Swiss mice CD1 [1]; [6]): * (* indicates a significant difference for p < 0.05 (Dunnett test))
immobility time, individual animals (Swiss mice CD1 [1]; [6]): 63 sec and 75 sec (2×) and 77 sec and 46 sec and 6 sec and 113 sec and 89 sec and 104 sec and 125 sec
immobility time, Mean (Swiss mice CD1 [1]; [6]): 77.3 s
decrease in the duration of immobilisation as compared to the control group (in words) (Swiss mice CD1 [1]; tested alone at 3 mg/kg intraperitoneally): statistically significant decrease
secondary effect (Swiss mice CD1 [2]): no secondary effect was observed
% of variation of immobility time vs control group (Swiss mice CD1 [3]; [7]): −30%
Dunnett test vs control group (Swiss mice CD1 [3]; [7]): ns
immobility time, individual animals (Swiss mice CD1 [3]; [7]): 86 s and 95 s and 104 s and 111 s and 126 s and 108 s and 78 s and 115 s and 106 s and 113 s
immobility time, Mean (Swiss mice CD1 [3]; [7]): 104.2 s
% of variation of immobility time vs control group (Swiss mice CD1 [3]; [8]): −43%
Dunnett test vs control group (Swiss mice CD1 [3]; [8]): * (* indicates a significant difference for p < 0.05 (Dunnett test))
immobility time, individual animals (Swiss mice CD1 [3]; [8]): 104 sec and 80 sec and 64 sec and 70 sec and 105 sec (3×) and 41 sec and 63 sec and 113 sec
immobility time, Mean (Swiss mice CD1 [3]; [8]): 85.0 s
% of variation of immobility time vs control group (Swiss mice CD1 [3]; [9]): −60%
Dunnett test vs control group (Swiss mice CD1 [3]; [9]): * (* indicates a significant difference for p < 0.05 (Dunnett test))
immobility time, individual animals (Swiss mice CD1 [3]; [9]): 52 s and 129 s and 67 s and 6 s and 105 s and 75 s and 81 s and 5 s and 37 s and 32 s
immobility time, Mean (Swiss mice CD1 [3]; [9]): 58.9 s
antidepressant effect (in words) (Swiss mice CD1 [3]; administered orally, 10 to 100 mg/kg): antidepressant effect related to the dose; also recorded: significant antidepressant effect in mice
immobility time compared with mice treated at 10 mg/kg of imipramine (Swiss mice CD1 [4]; 10 mg/kg intraperitoneally): comparable
% of variation of immobility time vs control group (Swiss mice CD1 [4]; [10]): −15%
Dunnett test vs control group (Swiss mice CD1 [4]; [10]): ns
immobility time, individual animals (Swiss mice CD1 [4]; [10]): 128 s and 82 s and 151 s and 132 s and 127 s and 88 s and 85 s and 99 s and 93 s and 118 s
immobility time, Mean (Swiss mice CD1 [4]; [10]): 110.3 s
% of variation of immobility time vs control group (Swiss mice CD1 [4]; [11]): −53%
Dunnett test vs control group (Swiss mice CD1 [4]; [11]): * (* indicates a significant difference for p < 0.05 (Dunnett test))
immobility time, individual animals (Swiss mice CD1 [4]; [11]): 29 s and 86 s and 28 s and 30 s and 90 s and 99 s and 65 s and 129 s and 57 s and 3 s
immobility time, Mean (Swiss mice CD1 [4]; [11]): 61.6 s
% of variation of immobility time vs control group (Swiss mice CD1 [4]; [12]): −80%
Dunnett test vs control group (Swiss mice CD1 [4]; [12]): * (* indicates a significant difference for p < 0.05 (Dunnett test))
immobility time, individual animals (Swiss mice CD1 [4]; [12]): 97 sec and 3 sec and 66 sec and 36 sec and 0 sec and 15 sec and 7 sec (2×) and 16 sec and 12 sec
immobility time, Mean (Swiss mice CD1 [4]; [12]): 25.9 s
antidepressant effect (in words) (Swiss mice CD1 [4]; injected intraperitoneally, 3 to 30 mg/kg): antidepressant effect related to the dose; also recorded: significant antidepressant effect in mice and equal to that of Imipramine, at comparable doses
